# Experimental data as given in ChEMBL document CHEMBL1201862, “PubChem BioAssay data set” (2004).
# Activity calls are given as the source filed them.
# Legend:
# [1] = molecular target: Keap1/Nrf2 (Homo sapiens, UniProt Q14145); assay: disruptors of Keap1 binding to Nrf2 peptide – biochemical, fluorescence polarization, cherry-picked samples, dose response (AID 588683)
# [2] = molecular target: Dual specificity tyrosine-phosphorylation-regulated kinase 1A (Rattus norvegicus, UniProt Q63470); format: biochemical, Homo sapiens
# [3] = tested on: CHO; assay: CHO cell viability loss, potency – luminescence, cytotoxicity control for TLR9-MyD88 binding inhibitor project, dose response (AID 588339); format: functional, cell-based, hamster; conditions: Cricetulus griseus;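 further: CHO cells stably coexpressing TLR9 and MyD88 fusions from primary screen; compound exposure lasted 48 hours before viability readout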
# [4] = molecular target: ORF 73 (Human herpesvirus 8, UniProt O40947); assay: KSHV LANA DNA-binding disruption – biochemical, fluorescence polarization, cherry-picked samples, dose response (AID 504725); design: species or system Human gammaherpesvirus 8;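 further: fluorescence polarization of a labeled DNA duplex reporting LANA DNA binding; potency is for inhibitors that block LANA binding to the DNA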
# Sequence of ORF 73 (O40947 whole entry): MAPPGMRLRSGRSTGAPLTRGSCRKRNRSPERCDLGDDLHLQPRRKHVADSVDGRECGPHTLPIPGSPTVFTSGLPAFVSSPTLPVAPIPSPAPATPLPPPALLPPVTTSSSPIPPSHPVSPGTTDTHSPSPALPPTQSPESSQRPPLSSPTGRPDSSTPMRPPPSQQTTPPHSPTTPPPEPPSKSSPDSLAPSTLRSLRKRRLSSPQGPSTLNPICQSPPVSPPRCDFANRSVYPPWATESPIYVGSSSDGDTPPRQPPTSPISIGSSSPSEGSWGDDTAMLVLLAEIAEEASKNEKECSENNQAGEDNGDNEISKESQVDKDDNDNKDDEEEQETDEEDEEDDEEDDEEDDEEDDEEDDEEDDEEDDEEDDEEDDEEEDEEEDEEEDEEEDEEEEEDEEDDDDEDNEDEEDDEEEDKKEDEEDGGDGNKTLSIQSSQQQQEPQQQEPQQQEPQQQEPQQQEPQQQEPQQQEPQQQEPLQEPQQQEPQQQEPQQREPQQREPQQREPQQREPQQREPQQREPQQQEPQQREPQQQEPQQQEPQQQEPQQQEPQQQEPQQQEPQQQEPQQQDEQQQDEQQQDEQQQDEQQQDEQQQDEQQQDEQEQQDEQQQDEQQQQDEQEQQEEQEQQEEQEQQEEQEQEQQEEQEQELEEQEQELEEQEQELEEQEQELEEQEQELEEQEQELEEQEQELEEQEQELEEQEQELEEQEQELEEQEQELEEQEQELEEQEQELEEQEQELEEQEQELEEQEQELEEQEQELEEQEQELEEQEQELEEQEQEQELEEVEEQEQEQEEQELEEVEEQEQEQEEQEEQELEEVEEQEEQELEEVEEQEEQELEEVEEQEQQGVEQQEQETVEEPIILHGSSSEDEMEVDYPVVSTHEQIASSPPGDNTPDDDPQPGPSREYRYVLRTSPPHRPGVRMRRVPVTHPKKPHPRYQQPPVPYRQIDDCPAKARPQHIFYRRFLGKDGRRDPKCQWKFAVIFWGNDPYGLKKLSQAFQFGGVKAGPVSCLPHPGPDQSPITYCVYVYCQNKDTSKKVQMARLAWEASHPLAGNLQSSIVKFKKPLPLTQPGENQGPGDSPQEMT
# [5] = molecular target: Beta Lactamase (Pseudomonas aeruginosa, UniProt Q932Y6); assay: BLA reporter interference, concentration series – BLA reporter cells, FRET fluorescence, artefact control for TLR9-MyD88 binding inhibitor project, dose response (AID 588341); format: cell-based;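 further: cell based assay in CHO-K1 cells stably expressing beta-lactamase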
# [6] = fluconazole-exposed Candida albicans growth modulators – fluorescence, retest, confirmation (AID 2467); format: functional, cell-based
# [7] = molecular target: T1, Runt-related transcription factor 1/Core-binding factor subunit beta (Homo sapiens, UniProt Q01196+Q13951); assay: Runt domain/CBFb-SMMHC interaction disruptors – biochemical, TR-FRET (AID 1438); format: protein assay
# T1 sequence (Q01196 whole entry, the tested form may be a part): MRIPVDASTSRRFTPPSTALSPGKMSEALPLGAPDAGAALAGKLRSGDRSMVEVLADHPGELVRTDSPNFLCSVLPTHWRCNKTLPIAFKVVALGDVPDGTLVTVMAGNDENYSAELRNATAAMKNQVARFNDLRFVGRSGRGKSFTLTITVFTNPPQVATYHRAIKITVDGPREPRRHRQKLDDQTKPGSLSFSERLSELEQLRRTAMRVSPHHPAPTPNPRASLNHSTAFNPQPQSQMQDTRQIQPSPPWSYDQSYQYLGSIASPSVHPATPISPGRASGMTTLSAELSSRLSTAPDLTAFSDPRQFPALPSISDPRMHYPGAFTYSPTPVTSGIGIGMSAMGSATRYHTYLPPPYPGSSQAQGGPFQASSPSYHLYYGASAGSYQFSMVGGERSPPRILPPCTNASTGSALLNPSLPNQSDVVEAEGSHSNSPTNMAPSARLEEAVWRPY
# T1 sequence (Q13951 whole entry, the tested form may be a part): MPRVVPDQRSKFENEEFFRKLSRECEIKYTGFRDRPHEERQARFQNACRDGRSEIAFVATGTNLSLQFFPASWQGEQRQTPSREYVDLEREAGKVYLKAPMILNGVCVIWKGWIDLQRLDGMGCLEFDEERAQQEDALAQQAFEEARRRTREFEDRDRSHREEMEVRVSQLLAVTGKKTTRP
# [8] = molecular target: Bcl-2-like protein 1 (Homo sapiens, UniProt Q07817); assay: blockers of BCLXL peptide binding – biochemical, fluorescence polarization, 1536-well, selectivity assay for MCL1 inhibitor project, dose response (AID 2218)
# Sequence of Bcl-2-like protein 1 (Q07817 whole entry): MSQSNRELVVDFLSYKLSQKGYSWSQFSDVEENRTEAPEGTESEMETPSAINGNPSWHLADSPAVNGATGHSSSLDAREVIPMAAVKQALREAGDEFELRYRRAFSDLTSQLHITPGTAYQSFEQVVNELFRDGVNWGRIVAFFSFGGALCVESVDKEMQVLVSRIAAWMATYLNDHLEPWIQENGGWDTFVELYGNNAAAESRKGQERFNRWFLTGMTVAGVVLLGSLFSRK
# [9] = molecular target: T2, Mannose-6-phosphate isomerase (Homo sapiens, UniProt P34949); assay: MPI enzyme activity inhibition – biochemical, fluorescence intensity, coupled assay, primary screen (AID 1209)
# T2 sequence (P34949 whole entry): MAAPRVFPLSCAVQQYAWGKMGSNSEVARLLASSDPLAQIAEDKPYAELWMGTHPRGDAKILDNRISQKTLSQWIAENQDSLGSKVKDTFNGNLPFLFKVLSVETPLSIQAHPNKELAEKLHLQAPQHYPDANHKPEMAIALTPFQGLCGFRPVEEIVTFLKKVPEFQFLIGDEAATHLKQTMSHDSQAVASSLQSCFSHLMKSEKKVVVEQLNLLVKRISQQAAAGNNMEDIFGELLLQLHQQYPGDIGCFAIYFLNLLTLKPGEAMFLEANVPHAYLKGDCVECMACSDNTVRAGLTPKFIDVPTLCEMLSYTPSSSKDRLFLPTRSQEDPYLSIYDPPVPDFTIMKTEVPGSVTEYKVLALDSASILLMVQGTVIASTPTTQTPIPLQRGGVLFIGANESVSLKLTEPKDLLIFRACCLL
# [10] = molecular target: Exodeoxyribonuclease V (Escherichia coli (strain K12), UniProt P04993+P07648+P08394); assay: RecBCD inhibition via phage-restricted bacterial growth – absorbance, V66 E. coli, mutant T4 phage, counter-screen for AddAB inhibitor project, dose response (AID 492957); format: functional, cell-based, Escherichia coli str. K-12 substr. MG1655
# [11] = NIH-3T3 fibroblast cytotoxicity, dose response, cytotoxicity control, cell-based, fluorescence, Alamar Blue, secondary assay (AID 2327); format: functional;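 further: NIH-3T3 mouse fibroblasts cultured with fluconazole at 8 µg/mL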
# [12] = molecular target: Transitional endoplasmic reticulum ATPase (Homo sapiens, UniProt P55072, C522A); assay: C522A mutant p97 ATPase inhibitors, dose response, counter-screen for p97 inhibitor project, biochemical, luminescence (AID 1544)
# [13] = molecular target: T3, Low molecular weight phosphotyrosine protein phosphatase (Homo sapiens, UniProt P24666); format: functional; conditions: read-out: IC50_Mean;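 further: Dose-response confirmation assay measuring inhibition of LMPTP enzyme activity by fluorescence intensity read-out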
# T3 sequence (P24666 whole entry): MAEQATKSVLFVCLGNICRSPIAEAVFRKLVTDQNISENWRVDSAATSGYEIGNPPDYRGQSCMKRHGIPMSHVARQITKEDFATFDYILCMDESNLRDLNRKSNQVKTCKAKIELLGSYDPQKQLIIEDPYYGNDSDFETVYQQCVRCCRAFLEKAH
# [14] = molecular target: Large T antigen (Simian virus 40, UniProt P03070); format: functional, Betapolyomavirus macacae;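 further: Confirmatory-stage PubChem screen for compounds that inhibit SV40 T antigen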
# Sequence of Large T antigen (P03070 whole entry): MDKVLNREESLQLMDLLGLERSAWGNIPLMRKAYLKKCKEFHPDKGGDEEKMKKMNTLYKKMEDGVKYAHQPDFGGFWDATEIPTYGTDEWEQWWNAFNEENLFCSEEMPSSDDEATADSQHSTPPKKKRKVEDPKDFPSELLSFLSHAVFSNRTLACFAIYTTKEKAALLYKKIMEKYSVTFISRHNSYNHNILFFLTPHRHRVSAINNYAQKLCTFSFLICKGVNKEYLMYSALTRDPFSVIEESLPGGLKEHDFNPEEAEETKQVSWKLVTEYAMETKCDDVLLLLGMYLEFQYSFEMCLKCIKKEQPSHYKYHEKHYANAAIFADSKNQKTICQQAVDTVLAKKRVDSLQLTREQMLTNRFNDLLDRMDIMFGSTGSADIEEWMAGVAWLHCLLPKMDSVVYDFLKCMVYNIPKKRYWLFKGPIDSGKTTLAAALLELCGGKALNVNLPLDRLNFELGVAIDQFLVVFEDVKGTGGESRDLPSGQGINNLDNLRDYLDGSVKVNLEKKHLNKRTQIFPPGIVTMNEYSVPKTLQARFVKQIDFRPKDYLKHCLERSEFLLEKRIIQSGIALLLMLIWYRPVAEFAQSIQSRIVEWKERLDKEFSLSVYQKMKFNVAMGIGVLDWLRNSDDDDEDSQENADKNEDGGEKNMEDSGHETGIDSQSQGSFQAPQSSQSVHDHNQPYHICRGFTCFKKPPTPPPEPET
# [15] = molecular target: T4, Induced myeloid leukemia cell differentiation protein Mcl-1 (Homo sapiens, UniProt Q07820); assay: blockers of MCL1 binding to BIM peptide – biochemical, fluorescence polarization, BIM-BH3 peptide, 1536-well, dose response (AID 2217)
# T4 sequence (Q07820 whole entry): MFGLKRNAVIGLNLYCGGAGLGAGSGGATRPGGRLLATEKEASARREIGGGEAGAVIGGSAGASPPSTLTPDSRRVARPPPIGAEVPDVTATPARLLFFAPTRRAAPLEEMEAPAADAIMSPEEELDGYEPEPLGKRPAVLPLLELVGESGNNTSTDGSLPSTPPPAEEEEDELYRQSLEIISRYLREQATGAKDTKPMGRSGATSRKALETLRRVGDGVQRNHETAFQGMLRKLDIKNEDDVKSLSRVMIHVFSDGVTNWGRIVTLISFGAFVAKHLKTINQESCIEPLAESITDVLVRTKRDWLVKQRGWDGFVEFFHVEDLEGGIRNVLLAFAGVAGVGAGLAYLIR
# [16] = Counterscreen for AddAB inhibitors: absorbance-based bacterial cell-based high throughput dose response assay for inhibitors of bacterial viability. [Related pubchem assays (depositor defined):AID435030, AID449728, AID449731, AID488942, AID488955, AID488956]; format: functional
# [17] = molecular target: NS3 (Hepatitis C virus, UniProt A3EZJ3); assay: PubChem AID 2173; design: species or system Hepacivirus hominis
# Sequence of NS3 (A3EZJ3 whole entry): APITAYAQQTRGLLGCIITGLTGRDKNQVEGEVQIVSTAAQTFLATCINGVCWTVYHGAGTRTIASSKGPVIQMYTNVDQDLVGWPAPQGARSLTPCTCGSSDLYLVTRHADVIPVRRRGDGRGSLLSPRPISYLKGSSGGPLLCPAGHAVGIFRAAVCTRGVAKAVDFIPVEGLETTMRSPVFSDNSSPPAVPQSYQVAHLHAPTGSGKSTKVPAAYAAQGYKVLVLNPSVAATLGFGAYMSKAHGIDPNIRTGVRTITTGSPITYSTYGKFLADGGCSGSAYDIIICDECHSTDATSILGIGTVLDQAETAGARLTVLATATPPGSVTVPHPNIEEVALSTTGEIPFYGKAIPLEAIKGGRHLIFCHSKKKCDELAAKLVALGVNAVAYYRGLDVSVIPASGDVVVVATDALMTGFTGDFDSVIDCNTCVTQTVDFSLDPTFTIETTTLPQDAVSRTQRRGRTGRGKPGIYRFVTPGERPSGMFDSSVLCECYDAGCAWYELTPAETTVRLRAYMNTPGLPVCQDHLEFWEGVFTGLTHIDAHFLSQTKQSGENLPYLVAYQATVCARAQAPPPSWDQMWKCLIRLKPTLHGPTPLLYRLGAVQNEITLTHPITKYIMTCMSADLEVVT
# [18] = molecular target: T4, Induced myeloid leukemia cell differentiation protein Mcl-1; format: functional
# [19] = molecular target: T1, Runt-related transcription factor 1/Core-binding factor subunit beta; assay: disruptors of Runt domain/CBFb-SMMHC interaction – biochemical, FRET, Cerulean-Runt, Venus-CBFb-SMMHC, uHTS, […] (AID 1434); format: protein assay
# [20] = molecular target: Transitional endoplasmic reticulum ATPase (Homo sapiens, UniProt P55072); assay: p97 ATPase inhibitors, dose response, biochemical (AID 1534)
# [21] = Late-stage probe development counterscreen for inhibitors of the Hepatitis C Virus non-structural protein 3 helicase (NS3): luminescence-based cell-based dose response assay to determine whether compounds that inhibit replication of HCV RNA replicon are cytotoxic. [Related pubchem assays (depositor defined):AID1800, AID1830, AID1845, AID1943, AID1945, AID2172, AID2173, AID2474, AID2476]; format: functional
# [22] = tested on: Candida albicans; assay: antifungal activity against resistant Candida strain – CaCi-8, fluconazole, Alamar Blue, dry powder, dose response (AID 488807); format: functional, organism-based
# Sequence of Keap1/Nrf2 (Q16236 whole entry): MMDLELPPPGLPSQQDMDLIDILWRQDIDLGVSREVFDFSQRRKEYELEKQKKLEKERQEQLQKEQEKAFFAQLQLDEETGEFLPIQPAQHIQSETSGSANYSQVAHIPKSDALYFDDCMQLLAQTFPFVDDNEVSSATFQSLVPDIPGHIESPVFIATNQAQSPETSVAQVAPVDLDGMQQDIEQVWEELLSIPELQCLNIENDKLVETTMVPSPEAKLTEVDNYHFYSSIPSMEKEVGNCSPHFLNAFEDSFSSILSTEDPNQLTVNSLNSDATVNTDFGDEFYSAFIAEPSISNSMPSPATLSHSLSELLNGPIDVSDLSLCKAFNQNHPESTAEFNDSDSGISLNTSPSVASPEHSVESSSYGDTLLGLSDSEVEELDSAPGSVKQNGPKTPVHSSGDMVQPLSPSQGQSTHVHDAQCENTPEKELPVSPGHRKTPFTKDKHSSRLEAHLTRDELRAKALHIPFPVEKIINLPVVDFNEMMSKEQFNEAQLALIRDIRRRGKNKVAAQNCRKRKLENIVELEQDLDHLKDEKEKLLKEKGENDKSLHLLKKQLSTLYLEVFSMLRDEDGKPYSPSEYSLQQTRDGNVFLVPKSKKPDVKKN
# Sequence of Keap1/Nrf2 (Q14145 whole entry): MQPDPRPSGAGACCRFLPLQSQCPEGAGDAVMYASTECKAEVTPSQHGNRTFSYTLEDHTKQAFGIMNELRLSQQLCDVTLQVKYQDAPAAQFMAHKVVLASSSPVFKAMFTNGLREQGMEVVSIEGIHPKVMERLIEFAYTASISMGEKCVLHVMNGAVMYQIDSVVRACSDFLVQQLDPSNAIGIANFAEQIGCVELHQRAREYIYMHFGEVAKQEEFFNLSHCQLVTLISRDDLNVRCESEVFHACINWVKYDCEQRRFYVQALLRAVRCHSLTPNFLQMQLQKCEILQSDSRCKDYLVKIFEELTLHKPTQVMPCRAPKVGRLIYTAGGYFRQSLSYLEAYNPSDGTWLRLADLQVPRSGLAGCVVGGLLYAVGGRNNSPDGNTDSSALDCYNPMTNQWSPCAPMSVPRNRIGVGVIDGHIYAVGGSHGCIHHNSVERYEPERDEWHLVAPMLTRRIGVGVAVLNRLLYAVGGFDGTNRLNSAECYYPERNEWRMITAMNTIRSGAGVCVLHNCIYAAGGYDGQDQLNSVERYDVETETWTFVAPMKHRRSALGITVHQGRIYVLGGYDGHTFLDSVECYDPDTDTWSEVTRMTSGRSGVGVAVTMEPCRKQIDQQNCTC
structure (smiles),measurement,setting,value
Oc1ccc2nnc3c(Br)cnn3c2c1,AC50,[1],16.1 µM (active)
same,AC50,[2],1.11 µM (active)
same,IC50,[3],> 49.8 µM (inactive)
same,AC50,[4],6.64 µM (active)
same,IC50,[5],6.63 µM (active)
COc1cccc(-n2c(SCc3cc(=O)oc4cc(O)c(O)cc34)nc3ccccc3c2=O)c1,EC50,[6],> 38 µM (not active)
same,IC50,[7],19.3 µM (active)
same,IC50,[8],> 109 µM (not active)
same,IC50,[9],15.6 µM (active)
same,IC50,[10],> 119 µM (inactive)
same,EC50,[11],> 150 µM (inactive)
same,IC50,[12],> 50 µM (not active)
same,IC50,[13],53.1 µM (inactive)
same,IC50,[14],> 100 µM (active)
same,IC50,[15],> 109 µM (not active)
same,IC50,[16],> 119 µM (inactive)
same,IC50,[17],2.31 µM (active)
same,IC50,[18],2.72 µM (active)
same,IC50,[19],2 µM (active)
same,IC50,[20],21.1 µM (not active)
same,CC50,[21],> 100 µM (inactive)
O=C(O)c1c2ccccc2nn1Cc1ccc(Cl)cc1,AC50,[22],149 µM (active)
